Assay results as given in PubChem BioAssay AID1996.
Values after ≈ are worked out from the molar mass of the structure shown.

Settings: buffer; pH 7.4; 200.0 µM
With COc1ccccc1NC(=O)C(=O)/C=C(\O)c1ccccc1 the solubility kinetic was 10.8 µg/mL (≈ 36.3 µM). CCCOC(=O)Cn1cnc2scc(-c3ccc(C)cc3)c2c1=O showed a solubility kinetic of 17.2 µg/mL (≈ 50.2 µM). Cc1ccc(C(=O)NC(C)C(c2cccs2)N2CCCC2)s1 (stereo not given) showed a solubility kinetic of over 50.2 µg/mL. For CC(=O)NC1(c2ccccc2)CCN(CC(=O)N2CCC(C)CC2)CC1, the solubility kinetic was over 53.6 µg/mL. For Cc1cccc(OCC(=O)OCC(=O)Nc2ccc(Cl)cn2)c1, the solubility kinetic was 32.5 µg/mL (≈ 97.1 µM). Compound O=C(COC(=O)COc1ccccc1)Nc1ccc(Cl)cn1 has a solubility kinetic of 13.3 µg/mL (≈ 41.5 µM). O=c1[nH]c2ccc(Cl)cc2c(-c2ccccc2)c1[N+](=O)[O-] showed a solubility kinetic of under 0.3 µg/mL. Cc1ccc(C(=O)O/N=C(\N)c2ccc(C(F)(F)F)cn2)cc1 showed a solubility kinetic of under 0.2 µg/mL. With CCN(CC)C1CCS(=O)(=O)C1.Cl (stereo not given) the solubility kinetic was over 34.2 µg/mL. With O=S(=O)(c1cccc2nsnc12)N1CCNCC1 the solubility kinetic was over 42.7 µg/mL. For C=CCN(c1ccccc1)S(=O)(=O)c1cccc2cccnc12, the solubility kinetic was 34.9 µg/mL (≈ 108 µM). CN1CC(=O)N(CC(=O)Nc2ccc3c(c2)CCC3)C1=O gave a solubility kinetic of over 43.1 µg/mL. For COc1ccc(C2=NOC(C(=O)NCc3cccnc3)C2)cc1 (stereo not given), the solubility kinetic was over 46.7 µg/mL. In the case of Cc1cccc(C(=O)Nc2ccc(NC(=O)c3ccccc3)cc2)c1, the solubility kinetic is reported as 1 µg/mL (≈ 3.03 µM). Compound CC(NCC(O)c1ccc([N+](=O)[O-])cc1)C12CC3CC(CC(C3)C1)C2 (stereo not given) has a solubility kinetic of 38.3 µg/mL (≈ 111 µM). Compound CCOC(=O)c1oc2nc3c(cc2c1N)CCCC3 has a solubility kinetic of 10.4 µg/mL (≈ 40 µM). c1ccc(CC2CCCCN2)cc1 (stereo not given) gave a solubility kinetic of 7.7 µg/mL (≈ 43.9 µM). In the case of O=C(O)/C=C/C(=O)NCCc1ccccc1, the solubility kinetic is reported as over 32.9 µg/mL. With Cc1cc(=O)[nH]c(=O)n1Cc1ccccc1 the solubility kinetic was 19.2 µg/mL (≈ 88.8 µM). CC(CNC(=O)c1ccccc1Cl)c1ccccc1 (stereo not given) showed a solubility kinetic of 36.6 µg/mL (≈ 134 µM). Work on CC1N=C(c2ccccc2)c2cc(Br)ccc2NC1=O (stereo not given) yielded a solubility kinetic of over 49.4 µg/mL. O=C(NCc1ccncc1)Nc1cccc([N+](=O)[O-])c1 gave a solubility kinetic of over 40.8 µg/mL. With COCc1c(C(=O)NCCc2ccc(OC(F)F)cc2)oc2ccccc12 the solubility kinetic was 13.5 µg/mL (≈ 36 µM). For c1ccc2c(c1)COC(CN1CCCCC1)OC2, the solubility kinetic was 35.6 µg/mL (≈ 144 µM). For COc1ccc2cc(C(=O)N(C)Cc3ccccc3)[nH]c2c1, the solubility kinetic was under 0.3 µg/mL. For CC(C)C(=O)Nc1ccc(-c2nc3ccccc3c(=O)o2)cc1, the solubility kinetic was 16.7 µg/mL (≈ 54.2 µM). With CC(=O)c1ccc(NC(=O)COC(=O)Cc2ccsc2)cc1 the solubility kinetic was over 47.6 µg/mL. Work on CCOc1ccc(NC(=S)NC(=O)c2cccnc2)c([N+](=O)[O-])c1 yielded a solubility kinetic of 4.3 µg/mL (≈ 12.4 µM). O=C(c1ccccc1F)N1CCN(c2ccccn2)CC1 showed a solubility kinetic of over 42.8 µg/mL. With CC(C)c1ccccc1OCCCN1CCCC1.O=C(O)C(=O)O the solubility kinetic was 47 µg/mL. Work on O=S(=O)(c1ccc(F)cc1)N1CCCC1c1cccnc1 (stereo not given) yielded a solubility kinetic of over 46 µg/mL. Compound CC(C)(C)CC(=O)NC(=S)NCc1ccco1 has a solubility kinetic of 9.3 µg/mL (≈ 36.6 µM). Cc1ccc(C(C)NC(=O)c2cc3ccccc3oc2=O)cc1C (stereo not given) showed a solubility kinetic of 0.8 µg/mL (≈ 2.49 µM). COc1ccc(/C=C/C(=O)O/N=C(\N)c2ccccn2)cc1OC gave a solubility kinetic of 7.8 µg/mL (≈ 23.8 µM). Work on CCCC/C(=N/O)c1c(C)[nH]c2ccccc12 yielded a solubility kinetic of 30.7 µg/mL (≈ 133 µM). For CC1CC(C)CN(C(=O)C(C)N2CCN(S(=O)(=O)c3ccc(Br)s3)CC2)C1 (stereo not given), the solubility kinetic was 29.7 µg/mL (≈ 62.1 µM). Compound O=C(CN1CCN(S(=O)(=O)c2ccc(Cl)cc2)CC1)N1CCCC1 has a solubility kinetic of 48.7 µg/mL (≈ 131 µM). With COC(=O)c1ccc(SCc2ccccc2)nc1 the solubility kinetic was 3.1 µg/mL (≈ 12 µM). C=CCNC(=O)C(=O)Nc1cc2c3c(c1)CCC(=O)N3CCC2 showed a solubility kinetic of over 47 µg/mL. Compound COc1ccc2cc(C(N)=O)c(=Nc3ccc(C)cc3)oc2c1 has a solubility kinetic of under 0.3 µg/mL. In the case of CC(C)(C)c1ccc(-c2nc(N)nc(N)n2)cc1, the solubility kinetic is reported as 0.9 µg/mL (≈ 3.7 µM). In the case of CCc1ccc(S(=O)(=O)NCc2cccs2)cc1, the solubility kinetic is reported as 35.6 µg/mL (≈ 127 µM). Work on C=CCN1C(=O)CSC1=Nc1ccc(NC(C)=O)cc1 yielded a solubility kinetic of 42 µg/mL (≈ 145 µM). Work on CCc1ccnc(NC(=O)Nc2ccc(OCc3ccccc3)cc2)c1 yielded a solubility kinetic of under 0.2 µg/mL. Compound O=C(NCc1ccco1)c1ccc([N+](=O)[O-])cc1Cl has a solubility kinetic of 40 µg/mL (≈ 143 µM). For CN(CCC#N)C(=O)CC(Cc1ccccc1)C1CCOC(C)(C)C1 (stereo not given), the solubility kinetic was over 51.4 µg/mL. With Cc1ccc(NS(=O)(=O)c2c(C)[nH]c(=O)[nH]c2=O)cc1F the solubility kinetic was over 47 µg/mL. With Nc1ncn([C@@H]2O[C@H](CO)[C@@H](O)[C@H]2O)c(=O)n1 the solubility kinetic was over 36.6 µg/mL. Work on CCN1C(=O)CSC1=Nc1cccc(C(=O)O)c1 yielded a solubility kinetic of over 39.6 µg/mL. Compound O=C(NC1CCSc2ccccc21)c1ccc([N+](=O)[O-])cc1 (stereo not given) has a solubility kinetic of 3.5 µg/mL (≈ 11.1 µM). For CC(C)NCC(O)COCCOc1ccc(Cl)cc1.Cl (stereo not given), the solubility kinetic was over 48.6 µg/mL. In the case of COc1cc(CN2CCN(CC3CC3)CC2CCO)cc(OC)c1 (stereo not given), the solubility kinetic is reported as 42.6 µg/mL (≈ 127 µM). With CCCC12CN3CC(CCC)(CN(C1)C3c1ccco1)C2=O (stereo not given) the solubility kinetic was over 45.4 µg/mL. For CN1CCOC(c2ccccc2)c2ccccc2C1.Cl (stereo not given), the solubility kinetic was over 43.5 µg/mL. For CSc1ccccc1C(=O)NC1CCCc2ccccc21 (stereo not given), the solubility kinetic was 11.7 µg/mL (≈ 39.3 µM). Work on CC1(C)CC(=O)C(C(O)c2cccc([N+](=O)[O-])c2)C(C)(C)N1 (stereo not given) yielded a solubility kinetic of 44.9 µg/mL (≈ 147 µM). Compound COc1ccc(-c2nc(N)c(C#N)c(-c3cccnc3)c2C)cc1 has a solubility kinetic of 2.8 µg/mL (≈ 8.85 µM). With NS(=O)(=O)c1ccc(NC(=O)Nc2ccccc2)cc1 the solubility kinetic was 42.8 µg/mL (≈ 147 µM). For CCN1CCN(CC2COc3ccccc3O2)CC1.Cl (stereo not given), the solubility kinetic was over 50.3 µg/mL. Cc1cc(Cl)ccc1NC(=S)NCc1ccc(F)cc1 gave a solubility kinetic of 2.8 µg/mL (≈ 9.07 µM). With Cc1nc2ccc(NC(=O)c3ccc(=O)[nH]c3)cc2s1 the solubility kinetic was 13.7 µg/mL (≈ 48 µM). Compound CC(C)=CC(=O)OCC(=O)NC1CCCc2ccccc21 (stereo not given) has a solubility kinetic of 25 µg/mL (≈ 87 µM). Cc1ccc(/C=C/C(=O)Oc2ccc(C#N)cc2)o1 showed a solubility kinetic of under 0.5 µg/mL. In the case of O=C(CCC(=O)Nc1cccc(C(F)(F)F)c1)NCC1CCCO1 (stereo not given), the solubility kinetic is reported as over 51.6 µg/mL. With CCOC(=O)c1[nH]c(=O)[nH]c1CNc1ccccc1C#N the solubility kinetic was over 42.9 µg/mL. In the case of O=C(NC(=S)Nc1ccc(Br)cc1F)C1CCCCC1, the solubility kinetic is reported as 0.9 µg/mL (≈ 2.51 µM). Cc1ccc(C(=O)OCC(=O)NC2CCCCC2)s1 gave a solubility kinetic of over 42.2 µg/mL. S=C(NC1CCCCC1)NC1CC2C=CC1C2 (stereo not given) showed a solubility kinetic of 19.5 µg/mL (≈ 77.9 µM). Compound C=CCN(c1ccccc1OC)S(=O)(=O)c1cccc(C(=O)OCC(=O)N2CCOCC2)c1 has a solubility kinetic of over 71.2 µg/mL. With CC(=O)Nc1ccc(CN2CCCN(C)CC2)cc1 the solubility kinetic was 29.2 µg/mL (≈ 112 µM). Cc1ccc2c(c1)c(-c1csc(N)n1)c(C)n2C gave a solubility kinetic of 13.4 µg/mL (≈ 52.1 µM). O=S(=O)(CCN1CCCCC1)Oc1ccc(Cl)cc1Cl showed a solubility kinetic of 50.5 µg/mL (≈ 149 µM). Work on Clc1ccc(-c2noc(CN3CCOCC3)n2)cc1 yielded a solubility kinetic of over 42 µg/mL. Cc1ccc2nc(N3CCN(C)CC3)c(C=O)c(=O)n2c1 showed a solubility kinetic of 41.3 µg/mL (≈ 144 µM). With O=C(COC(=O)/C=C/c1cccs1)NC1CCCCC1 the solubility kinetic was 9.4 µg/mL (≈ 32 µM). Compound Cc1ccc(C(=O)N(CN2CCCC2=O)c2ccccc2)cc1 has a solubility kinetic of over 46.3 µg/mL. COc1ccc(NC(C)=O)cc1NC(=O)c1ccc2ccccc2c1 gave a solubility kinetic of 13 µg/mL (≈ 38.9 µM). Compound Cc1ccccc1OCC(=O)OCC(=O)NCc1ccccc1 has a solubility kinetic of over 47 µg/mL. With CSCCC1NC(=O)N(CC(=O)Nc2ccc(Cl)c(S(=O)(=O)N3CCOCC3)c2)C1=O (stereo not given) the solubility kinetic was over 73.6 µg/mL. CCn1c(=O)c(C(=O)NC(C)c2ccccc2)c(O)c2ccccc21 (stereo not given) gave a solubility kinetic of under 0.4 µg/mL. O=C(Nc1nccs1)c1ccc([N+](=O)[O-])cc1Cl showed a solubility kinetic of 3.8 µg/mL (≈ 13.4 µM). Work on CC(NC(=O)Cc1ccc([N+](=O)[O-])cc1)c1ccc2c(c1)OCO2 (stereo not given) yielded a solubility kinetic of 7.9 µg/mL (≈ 24.1 µM). With CN(C)[C@@H]1C(=O)C(C(N)=O)=C(O)[C@@]2(O)C(=O)C3=C(O)c4c(O)cccc4[C@@](C)(O)[C@H]3[C@H](O)[C@@H]12 the solubility kinetic was 47 µg/mL (≈ 102 µM). COC(=O)Cc1ccc(NC(=S)N2CCC(Cc3ccccc3)CC2)cc1 gave a solubility kinetic of 6.5 µg/mL (≈ 17 µM). Cc1ccc(Cl)cc1NC(=O)C1CC1c1ccccc1 (stereo not given) showed a solubility kinetic of under 0.6 µg/mL.
